Measurements: US11304974B2, “Nanosystems comprising silver and antibiotics and their use for the treatment of bacterial infections” (priority 2017, dated 2022)
Like-named read-outs stand apart in the source and are kept apart here.

Key:
[1] = test system: S. aureus Sa-3 (strain 3); assay: Checkerboard synergy test collargol-vancomycin (Example 5); details: Staphylococcus aureus, read-out: MIC (product alone, Checkerboard test)
Protocol: (§3) To determine the existence of synergistic activity between collargol and vancomycin, a checkerboard test using plates having a “U”-shaped bottom (TPP) of 96 wells was used. Double subinhibitory serial dilutions of the two antimicrobials were prepared, so that the concentration of collargol decreased vertically (up-down) and the concentration of vancomycin decreased horizontally (left-right).
(§4) To quantify the synergistic activity of the two combined compounds, the Index fractional inhibitory concentration (IFIC) parameter was used. This index relates MIC of the antimicrobial 1 with the antimicrobial 2 alone and in combination, according to the following formula:
(§5) It is considered that there is synergistic effect if the IFIC value is <0.5.
(§6) The procedure was as follows: • Preparation of fresh cultures of each of the strains on blood agar (37° C., 24 h). […] The well wherein the minimum value of IFIC is obtained is chosen.

[2] = test system: S. aureus Sa-11 (strain 10); assay: as above; details: Staphylococcus aureus, read-out: MIC (product alone, Checkerboard test)
Protocol: as §3, §4, §5, §6

Gram Positive Bacteria = assay: Silver-antibiotics interaction study, MicroScan (Example 4); type: cell-based, S. aureus; details: subinhibitory colloidal silver (½ or 1/10 MIC)
Protocol: The effect of subinhibitory concentrations of colloidal silver (namely, ½ and 1/10 dilution of the MIC obtained in Example 3) in the presence of different types of antibiotics was tested.
For this, an automated equipment MicroScan AutoScan 4 (Siemens) was used, using Gram negative (Becman Coulter NM37) and Gram positive (Becman Coulter PM28) cards.
Each of these broths served as inoculum for the cards with antibiotics (for each strain, thus 3 cards were prepared). • Incubating the plates with antibiotics (in presence and absence of silver) at 37° C. for 24 h. • Reading the cards by use of LabPro software, and interpretation of the obtained values of MIC (determine if the silver reduces the initial MCI of each antibiotic).

[3] = test system: S. aureus Sa-10 (strain 9); assay: Checkerboard synergy test collargol-vancomycin (Example 5); details: Staphylococcus aureus, read-out: MIC (product alone, Checkerboard test)
Protocol: as §3, §4, §5, §6

[4] = test system: S. aureus Sa-12 (strain 11); assay: as above; details: Staphylococcus aureus, read-out: MIC (product alone, Checkerboard test)
Protocol: as §3, §4, §5, §6

[5] = test system: S.aureus ATCC 700698 Sa-SARM (strain 15); assay: Epsilometry E-test, absence and presence of silver (Example 5); type: cell-based; details: Staphylococcus aureus
Protocol: (§1) In order to evaluate the synergy of collargol-antibiotics an epsilometry E-test was carried out. Said test is based on the agar diffusion method and relates to using a strip with a predefined steady gradient of 15 concentrations of the antibiotic being tested. After strain growth, an elliptical inhibition halo, being the MIC the antibiotic concentration corresponding to the cutting point.
(§2) It was performed for the antibiotics vancomycin, linezolid and tedizolid, in absence and presence of silver (½ and 1/10 MIC).

[6] = test system: S. aureus Sa-11 (strain 10); assay: as above; type: cell-based; details: Staphylococcus aureus
Protocol: as §1, §2

[7] = test system: S. aureus Sa-12 (strain 11); assay: as above; type: cell-based; details: Staphylococcus aureus
Protocol: as §1, §2

[8] = test system: S. aureus Sa-10 (strain 9); assay: as above; type: cell-based; details: Staphylococcus aureus
Protocol: as §1, §2

[9] = test system: S. aureus Sa-1 (strain 1); assay: as above; type: cell-based; details: Staphylococcus aureus
Protocol: as §1, §2

[10] = test system: S. aureus Sa-14 (strain 13); assay: as above; type: cell-based; details: Staphylococcus aureus, strain 13 (S. aureus Sa-14)
Protocol: as §1, §2

[11] = test system: S. aureus Sa-9 (strain 8); assay: as above; type: cell-based; details: Staphylococcus aureus
Protocol: as §1, §2

[12] = test system: S. aureus Sa-3 (strain 3); assay: as above; type: cell-based; details: Staphylococcus aureus
Protocol: as §1, §2

[13] = test system: S. epidermidis Se-1 (strain 14); assay: as above; type: cell-based; details: Staphylococcus epidermidis
Protocol: as §1, §2

[14] = test system: S. aureus Sa-13 (strain 12); assay: as above; type: cell-based; details: Staphylococcus aureus
Protocol: as §1, §2

[15] = test system: S. epidermidis Se-1 (strain 14); assay: Checkerboard synergy test collargol-vancomycin (Example 5); details: Staphylococcus epidermidis, read-out: MIC (product alone, Checkerboard test)
Protocol: as §3, §4, §5, §6

[16] = read-out: MIC (E-test) MH (without silver)
[17] = read-out: MIC (E-test) MH-1/10 MIC
[18] = read-out: MIC (E-test) MH-½ MIC

CN[C@H](CC(C)C)C(=O)N[C@H]1C(=O)N[C@@H](CC(N)=O)C(=O)N[C@H]2C(=O)N[C@H]3C(=O)N[C@H](C(=O)N[C@H](C(=O)O)c4cc(O)cc(O)c4-c4cc3ccc4O)[C@H](O)c3ccc(c(Cl)c3)Oc3cc2cc(c3O[C@@H]2O[C@H](CO)[C@@H](O)[C@H](O)[C@H]2O[C@H]2C[C@](C)(N)[C@H](O)[C@H](C)O2)Oc2ccc(cc2Cl)[C@H]1O [Vancomycin]
improved sensitivity: Effect of silver on the strain's sensitivity to the antibiotic (Gram Positive Bacteria)
0.5 µg/mL: MIC [6, 16] | MIC [7, 18] | MIC [9, 16] | MIC [9, 17] | MIC [13, 17] | MIC [14, 16] | MIC [14, 17]
0.38 µg/mL: MIC [6, 17] | MIC [8, 18] | MIC [9, 18] | MIC ([10]; MH agar with 1/10 MIC of colargol, read-out: MIC (E-test) MH-1/10 MIC) | MIC ([10]; MH agar without silver, read-out: MIC (E-test) MH (without silver)) | MIC [12, 18] | MIC [13, 18] | MIC [14, 18]
1.5 µg/mL: MIC ([5]; ATCC700698, read-out: MIC (E-test) MH (without silver))
1 µg/mL: MIC [1] | MIC [2] | MIC [3] | MIC [4] | MIC ([5]; ATCC700698, read-out: MIC (E-test) MH-1/10 MIC) | MIC ([5]; ATCC700698, read-out: MIC (E-test) MH-½ MIC) | MIC [7, 16] | MIC [7, 17] | MIC [8, 16] | MIC [8, 17] | MIC [11, 16] | MIC [11, 17] | MIC [15]
0.25 µg/mL: MIC [6, 18] | MIC ([10]; MH agar with ½ MIC of colargol, read-out: MIC (E-test) MH-½ MIC)
0.75 µg/mL: MIC [11, 18] | MIC [12, 16] | MIC [12, 17] | MIC [13, 16]
